According to ChEMBL document CHEMBL3044730, “Synthesis, antimycobacterial, antiviral, antimicrobial activities, and QSAR studies of nicotinic acid benzylidene hydrazide derivatives” (Med Chem Res, 2012):
Values after ≈ are worked out from the molar mass of the structure shown.

Legend:
Punta Toro virus = assay: Antiviral activity against Punta Toro virus infected Vero cells assessed as inhibition of virus-induced cytopathicity; format: functional, organism-based
[1] = system: Vesicular stomatitis virus; assay: Antiviral activity against Vesicular stomatitis virus infected human HeLa cells assessed as inhibition of virus-induced cytopathicity by microscopy; format: functional, organism-based
[2] = system: Mammalian orthoreovirus 1; assay: Antiviral activity against Mammalian orthoreovirus 1 infected Vero cells assessed as inhibition of virus-induced cytopathicity by microscopy; format: functional, organism-based; conditions: Mammalian orthoreovirus 1, Vero
Human alphaherpesvirus 2 = assay: Antiviral activity against Human herpesvirus 2 strain G infected human HEL cells assessed as inhibition of virus-induced cytopathicity by microscopy; format: functional, organism-based; conditions: Human alphaherpesvirus 2, strain G
Sindbis virus = assay: Antiviral activity against Sindbis virus infected Vero cells assessed as inhibition of virus-induced cytopathicity; format: functional, organism-based
Human alphaherpesvirus 1 [3] = assay: Antiviral activity against Human herpesvirus 1 strain KOS infected in human HEL cells assessed as inhibition of virus-induced cytopathicity by microscopy by microscopy; format: functional, organism-based; conditions: Human alphaherpesvirus 1, KOS
Staphylococcus aureus = assay: Antimicrobial activity against Staphylococcus aureus after 24 hr by serial dilution method; format: functional; set-up: unit not given here
Vaccinia virus = assay: Antiviral activity against Vaccinia virus infected human HEL cells assessed as inhibition of virus-induced cytopathicity by microscopy; format: functional, organism-based; conditions: Orthopoxvirus vaccinia
[4] = system: Respiratory syncytial virus; assay: Antiviral activity against Respiratory syncytial virus infected human HeLa cells assessed as inhibition of virus-induced cytopathicity by microscopy; format: functional, organism-based
[5] = Cytotoxicity against Homo sapiens (human) MT4 cells after 4 days by MTT assay; format: cell-based
[6] = system: Mycobacterium tuberculosis; assay: Antimicrobial activity against Mycobacterium tuberculosis by agar dilution method; format: functional
[7] = Cytotoxicity against Homo sapiens (human) HEL cells assessed as alteration in cell morphology by microscopy; format: cell-based
Coxsackievirus B4 [8] = assay: Antiviral activity against Human coxsackievirus B4 infected human HeLa cells assessed as inhibition of virus-induced cytopathicity by microscopy; format: functional, organism-based; conditions: Enterovirus B
[9] = Cytotoxicity against Homo sapiens (human) HeLa cells assessed as alteration in cell morphology by microscopy; format: cell-based
Escherichia coli = assay: Antimicrobial activity against Escherichia coli after 24 hr by serial dilution method; format: functional; set-up: unit not given here
Candida albicans [10] = assay: Antimicrobial activity against Candida albicans after 7 days by serial dilution method; format: functional; set-up: unit not given here
Candida albicans [11] = assay: Antimicrobial activity against Candida albicans after 2 days by serial dilution method; format: functional; set-up: unit not given here
[12] = system: Human immunodeficiency virus 1; assay: Antiviral activity against Human immunodeficiency virus 1 IIIB infected MT4 cells assessed as inhibition of virus-induced cytopathic effect after 4 days by MTT assay; format: functional, organism-based; conditions: MT4, 96 h
[13] = system: Human immunodeficiency virus 2; assay: Antiviral activity against Human immunodeficiency virus type 2 (ISOLATE ROD) infected MT4 cells assessed as inhibition of virus-induced cytopathic effect after 4 days by MTT assay; format: functional, organism-based; conditions: Human immunodeficiency virus 2, ISOLATE ROD, MT4, 96 h
Bacillus subtilis = assay: Antimicrobial activity against Bacillus subtilis after 24 hr by serial dilution method; format: functional; set-up: unit not given here
Coxsackievirus B4 [14] = assay: Antiviral activity against Human coxsackievirus B4 infected Vero cells assessed as inhibition of virus-induced cytopathicity; format: functional, organism-based; conditions: Enterovirus B
Human alphaherpesvirus 1 [15] = assay: Antiviral activity against TK(-) aciclovir-resistant Human herpesvirus 1 strain KOS infected in human HEL cells assessed as inhibition of virus-induced cytopathicity; format: functional, organism-based; conditions: Human alphaherpesvirus 1, KOS
[16] = system: Human herpesvirus 3 strain Oka vaccine; assay: Antiviral activity against Human herpesvirus 3 strain Oka vaccine OKA 07-1 (Varicella zoster virus) infected in human HEL cells assessed as inhibition of virus-induced cytopathicity; format: functional, organism-based; conditions: Human alphaherpesvirus 3, OKA 07-1, HEL
[17] = Cytotoxicity against Chlorocebus aethiops (African green monkey) Vero cells assessed as alteration in cell morphology by microscopy; format: cell-based; conditions: chlorocebus sabaeus
[18] = system: Human herpesvirus 5 strain AD169; assay: Antiviral activity against Human herpesvirus 5 strain AD169 Davis infected human HEL cells assessed as inhibition of virus-induced cytopathicity by microscopy; format: functional, organism-based; conditions: Human betaherpesvirus 5, Davis
Human respirovirus 3 = assay: Antiviral activity against Human parainfluenza virus 3 infected Vero cells assessed as inhibition of virus-induced cytopathicity by microscopy; format: functional, organism-based; conditions: Human respirovirus 3, Vero

Structure (SMILES)	-logMIC (Staphylococcus aureus)	CC50 at 96 h [5]	MIC [6]	-logMIC (Escherichia coli)	-logMIC (Candida albicans [10])	-logMIC (Candida albicans [11])	EC50 [13]	-logMIC (Bacillus subtilis)	also measured
O=C(N/N=C/c1ccc(O)cc1)c1cccnc1	1.29	104 µg/mL (≈ 431 µM)	> 25 µg/mL	1.29	1.59	1.28	> 104 µg/mL	1.29	EC50 (Punta Toro virus): > 100 µg/mL; EC50 [1]: > 100 µg/mL; EC50 [2]: > 100 µg/mL; EC50 (Human alphaherpesvirus 2): > 100 µg/mL; EC50 (Sindbis virus): > 100 µg/mL; EC50 (Human alphaherpesvirus 1 [3]): > 100 µg/mL; EC50 (Vaccinia virus): > 100 µg/mL; EC50 [4]: > 100 µg/mL; CC50 [7]: 91 µg/mL (≈ 377 µM); MCC [7]: > 100 µg/mL; EC50 (Coxsackievirus B4 [8]): > 100 µg/mL; MCC [9]: > 100 µg/mL; EC50 [12]: > 104 µg/mL; EC50 (Coxsackievirus B4 [14]): > 100 µg/mL; EC50 (Human alphaherpesvirus 1 [15]): > 100 µg/mL; EC50 [16]: 54 µg/mL (≈ 224 µM); MCC [17]: > 100 µg/mL; EC50 [18]: > 100 µg/mL; EC50 (Human respirovirus 3): > 100 µg/mL
O=C(O)c1cn(C2CC2)c2cc(N3CCNCC3)c(F)cc2c1=O [CIPROFLOXACIN]	–	–	3.13 µg/mL (≈ 9.45 µM)	–	–	–	–	–	–
CC[C@@H](CO)NCCN[C@@H](CC)CO [ETHAMBUTOL]	–	–	1.56 µg/mL (≈ 7.64 µM)	–	–	–	–	–	–
OC(Cn1cncn1)(Cn1cncn1)c1ccc(F)cc1F [FLUCONAZOLE]	–	–	–	–	2.64	2.64	–	–	–
NNC(=O)c1ccncc1 [ISONIAZID]	–	–	0.1 µg/mL (≈ 0.729 µM)	–	–	–	–	–	–
Cc1ccnc2c1NC(=O)c1cccnc1N2C1CC1 [NEVIRAPINE]	–	> 4 µg/mL	–	–	–	–	4 µg/mL (≈ 15 µM)	–	EC50 [12]: 0.05 µg/mL (≈ 0.188 µM)
NNC(=O)c1cccnc1 [NICOTINIC ACID HYDRAZIDE]	0.74	–	–	0.74	1.04	1.04	–	1.04	–
CCn1cc(C(=O)O)c(=O)c2cc(F)c(N3CCNCC3)cc21 [NORFLOXACIN]	2.61	–	–	2.61	–	–	–	2.61	–
Cc1cn([C@H]2C[C@H](N=[N+]=[N-])[C@@H](CO)O2)c(=O)[nH]c1=O [ZIDOVUDINE]	–	> 2.5 µg/mL	–	–	–	–	0.0009 µg/mL (≈ 0.00337 µM)	–	–
